Results as given in patent publication US11730712B2, “Functionalized long-chain hydrocarbon mono- and di-carboxylic acids and derivatives thereof, and their use for the prevention or treatment of disease” (ESPERVITA THERAPEUTICS, INC., priority 2021, dated 2023).
Values joined by “and” are separate entries in the source; they are usually repeats but may differ in a detail not shown here. Identical values can stand only once.

Legend:
Type in all cases: biochemical
AURORA C = target: T1, AURORA C (Homo sapiens, UniProt Q9UQB9); assay: Kinase assay, wild type kinases; settings: compound 10 μM, 10 μM ATP, duplicate (Data 1, Data 2), >100 activation, <100 inhibition; for remaining activity at 10 µM: read-out: % Enzyme Activity (relative to DMSO controls), AURORA C
T1 sequence (Q9UQB9 1-309): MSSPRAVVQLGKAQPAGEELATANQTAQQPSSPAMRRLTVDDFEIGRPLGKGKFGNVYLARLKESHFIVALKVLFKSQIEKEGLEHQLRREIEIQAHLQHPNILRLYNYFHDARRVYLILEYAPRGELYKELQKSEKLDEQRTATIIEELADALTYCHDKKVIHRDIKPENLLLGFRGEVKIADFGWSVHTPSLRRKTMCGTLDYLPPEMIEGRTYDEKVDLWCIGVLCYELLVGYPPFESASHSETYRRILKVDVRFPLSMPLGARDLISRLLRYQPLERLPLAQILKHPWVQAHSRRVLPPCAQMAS

DDR2 = target: T2, DDR2 (Homo sapiens, UniProt Q16832); assay: Kinase assay, wild type kinases; settings: compound 10 μM, 10 μM ATP, duplicate (Data 1, Data 2), >100 activation, <100 inhibition; for remaining activity at 10 µM: read-out: % Enzyme Activity (relative to DMSO controls), DDR2
T2 sequence (Q16832 22-855): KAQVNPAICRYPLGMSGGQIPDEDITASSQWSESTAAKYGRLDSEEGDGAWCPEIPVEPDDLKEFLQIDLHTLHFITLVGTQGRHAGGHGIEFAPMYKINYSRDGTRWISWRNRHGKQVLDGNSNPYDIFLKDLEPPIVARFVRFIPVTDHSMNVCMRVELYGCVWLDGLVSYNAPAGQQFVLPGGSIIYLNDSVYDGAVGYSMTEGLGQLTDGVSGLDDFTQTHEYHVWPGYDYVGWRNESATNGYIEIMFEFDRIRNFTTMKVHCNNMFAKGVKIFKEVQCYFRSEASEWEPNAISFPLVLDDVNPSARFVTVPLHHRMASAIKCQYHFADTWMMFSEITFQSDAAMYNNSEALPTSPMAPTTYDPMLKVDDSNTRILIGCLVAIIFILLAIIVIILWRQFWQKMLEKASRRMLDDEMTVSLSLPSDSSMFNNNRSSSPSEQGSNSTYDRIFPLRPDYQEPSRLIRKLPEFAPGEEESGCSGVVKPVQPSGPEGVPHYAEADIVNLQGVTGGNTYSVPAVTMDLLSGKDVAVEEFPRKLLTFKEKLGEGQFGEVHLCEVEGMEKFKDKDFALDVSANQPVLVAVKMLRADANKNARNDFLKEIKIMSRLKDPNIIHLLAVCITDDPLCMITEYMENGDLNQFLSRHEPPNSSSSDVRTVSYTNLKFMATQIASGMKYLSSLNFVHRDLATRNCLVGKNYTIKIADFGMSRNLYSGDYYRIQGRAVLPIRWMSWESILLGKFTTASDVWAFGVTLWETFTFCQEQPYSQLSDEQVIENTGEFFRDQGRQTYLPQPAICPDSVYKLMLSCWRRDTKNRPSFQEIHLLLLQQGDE

LIMK1 = LIMK1 (Homo sapiens, UniProt P53667); assay: Kinase assay, wild type kinases; settings: compound 10 μM, 10 μM ATP, duplicate (Data 1, Data 2), >100 activation, <100 inhibition; for remaining activity at 10 µM: read-out: % Enzyme Activity (relative to DMSO controls), LIMK1
Sequence of LIMK1 (P53667 whole entry, species assumed): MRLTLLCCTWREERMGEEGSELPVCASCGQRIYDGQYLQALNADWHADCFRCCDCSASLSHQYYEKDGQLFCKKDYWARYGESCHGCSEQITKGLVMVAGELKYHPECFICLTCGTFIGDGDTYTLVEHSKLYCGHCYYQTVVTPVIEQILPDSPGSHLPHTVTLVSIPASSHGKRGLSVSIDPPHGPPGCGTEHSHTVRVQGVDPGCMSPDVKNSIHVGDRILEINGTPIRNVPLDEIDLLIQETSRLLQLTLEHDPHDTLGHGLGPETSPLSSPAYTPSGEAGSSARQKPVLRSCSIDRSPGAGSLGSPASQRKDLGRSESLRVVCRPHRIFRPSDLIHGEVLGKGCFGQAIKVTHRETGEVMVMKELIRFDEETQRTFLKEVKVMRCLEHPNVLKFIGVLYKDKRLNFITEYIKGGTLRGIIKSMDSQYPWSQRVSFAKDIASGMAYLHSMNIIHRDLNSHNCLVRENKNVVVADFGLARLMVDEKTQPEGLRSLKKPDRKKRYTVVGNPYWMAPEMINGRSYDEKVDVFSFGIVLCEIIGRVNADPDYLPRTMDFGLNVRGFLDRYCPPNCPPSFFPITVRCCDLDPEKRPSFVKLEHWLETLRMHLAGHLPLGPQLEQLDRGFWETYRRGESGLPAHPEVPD

MAPKAPK2 = MAPKAPK2 (Homo sapiens, UniProt P49137); assay: Kinase assay, wild type kinases; settings: compound 10 μM, 10 μM ATP, duplicate (Data 1, Data 2), >100 activation, <100 inhibition; for remaining activity at 10 µM: read-out: % Enzyme Activity (relative to DMSO controls), MAPKAPK2
Sequence of MAPKAPK2 (P49137 whole entry, species assumed): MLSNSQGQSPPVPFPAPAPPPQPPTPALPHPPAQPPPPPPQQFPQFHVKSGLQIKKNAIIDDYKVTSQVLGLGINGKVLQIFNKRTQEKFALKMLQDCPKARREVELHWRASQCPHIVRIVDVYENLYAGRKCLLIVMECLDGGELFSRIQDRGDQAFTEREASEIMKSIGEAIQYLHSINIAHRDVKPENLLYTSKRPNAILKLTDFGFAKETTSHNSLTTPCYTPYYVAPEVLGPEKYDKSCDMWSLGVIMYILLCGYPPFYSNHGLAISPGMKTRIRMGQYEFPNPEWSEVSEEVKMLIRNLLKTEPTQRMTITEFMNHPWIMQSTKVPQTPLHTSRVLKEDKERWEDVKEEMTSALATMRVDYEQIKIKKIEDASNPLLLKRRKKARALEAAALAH

FLT1/VEGFR1 = FLT1/VEGFR1 (Homo sapiens, UniProt P17948); assay: Kinase assay, wild type kinases; settings: compound 10 μM, 10 μM ATP, duplicate (Data 1, Data 2), >100 activation, <100 inhibition; for remaining activity at 10 µM: read-out: % Enzyme Activity (relative to DMSO controls), FLT1/VEGFR1
Sequence of FLT1/VEGFR1 (P17948 27-1338): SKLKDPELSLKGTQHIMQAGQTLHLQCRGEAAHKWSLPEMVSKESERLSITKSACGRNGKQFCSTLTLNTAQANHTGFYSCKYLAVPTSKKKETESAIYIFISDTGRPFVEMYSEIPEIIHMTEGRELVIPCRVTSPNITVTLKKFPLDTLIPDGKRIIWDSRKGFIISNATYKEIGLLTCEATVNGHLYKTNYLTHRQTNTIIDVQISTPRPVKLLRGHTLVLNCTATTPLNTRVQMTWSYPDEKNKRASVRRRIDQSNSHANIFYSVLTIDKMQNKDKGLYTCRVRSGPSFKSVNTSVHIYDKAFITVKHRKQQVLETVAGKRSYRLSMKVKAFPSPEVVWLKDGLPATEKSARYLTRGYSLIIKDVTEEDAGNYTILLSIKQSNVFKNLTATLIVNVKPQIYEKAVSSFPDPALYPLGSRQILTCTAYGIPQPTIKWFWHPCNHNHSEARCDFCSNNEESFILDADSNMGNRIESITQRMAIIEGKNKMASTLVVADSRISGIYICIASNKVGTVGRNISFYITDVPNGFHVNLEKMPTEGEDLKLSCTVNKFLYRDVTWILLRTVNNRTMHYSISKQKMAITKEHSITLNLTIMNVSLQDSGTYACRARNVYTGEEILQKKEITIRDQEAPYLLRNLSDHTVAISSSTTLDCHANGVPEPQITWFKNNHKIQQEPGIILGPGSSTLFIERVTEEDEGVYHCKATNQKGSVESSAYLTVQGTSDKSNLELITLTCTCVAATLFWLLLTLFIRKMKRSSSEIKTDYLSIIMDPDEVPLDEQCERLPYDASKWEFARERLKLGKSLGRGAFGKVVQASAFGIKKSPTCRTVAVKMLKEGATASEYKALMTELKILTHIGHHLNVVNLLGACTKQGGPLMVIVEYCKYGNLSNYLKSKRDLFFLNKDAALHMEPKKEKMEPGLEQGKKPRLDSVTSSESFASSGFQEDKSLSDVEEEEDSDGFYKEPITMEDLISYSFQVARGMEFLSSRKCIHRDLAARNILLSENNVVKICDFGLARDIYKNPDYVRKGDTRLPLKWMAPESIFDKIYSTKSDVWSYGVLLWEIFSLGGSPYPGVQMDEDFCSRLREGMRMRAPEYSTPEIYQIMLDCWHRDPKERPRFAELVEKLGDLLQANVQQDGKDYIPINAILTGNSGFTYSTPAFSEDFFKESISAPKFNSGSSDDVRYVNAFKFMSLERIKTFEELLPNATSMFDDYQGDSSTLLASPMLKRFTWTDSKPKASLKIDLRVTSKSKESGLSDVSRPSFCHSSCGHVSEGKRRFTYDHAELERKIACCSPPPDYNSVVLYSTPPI

Human ACC1 = target: T3, Human ACC1 (Homo sapiens, UniProt Q13085); assay: ACC1 enzymatic assay (ADP-Glo); settings: recombinant human ACC1 5 nM, 10 μM ATP, 10 μM acetyl CoA; Run 1-3; read-out: Compound IC50 (M) ACC1
T3 construct: FLAG (C); His (C); purchased BPS Biosciences 50202; host or cells: Baculovirus infected Sf9 cells
Description: Human ACC1 (Cat#50202 Lot #120830) and ACC2 (Cat #50201 Lot #160217) were obtained from BPS Biosciences, San Diego, Calif. 92121. Human ACC1 had C-terminal flag and His-tags with a MW of 270 KDa after purification from Baculovirus infected Sf9 cell expression system and came as a solution in 50 mM Tris-HCl, pH 8.0, 500 mM NaCl, 10% glycerol, 1 mM DTT, 100 μg/ml FLAG peptide with 70% purity. The stock concentration was 0.25 mg/ml corresponding to 0.926 μM. Human ACC2 was also purified from Baculovirus infected Sf9 expression system. […] The stock concentration was 0.1 mg/ml corresponding to 0.36 μM. The assay buffer for measuring the activity of ACC contained: 30 mM HEPES (pH 7.4), 2 mM MgCl2, 0.01% Brij35, 2 mM DTT, 1% DMSO (solvent for compound). For ACC1 and ACC2 assays, the following concentrations of substrate and cofactors were used: 12 mM NaHCO3, 10 μM acetyl CoA, 10 μM ATP, and 2 mM K-citrate. The recombinant human enzyme was used at 5 nM for ACC1 and 1 nM for ACC2. In brief, enzyme alone in the above buffer without substrate was used for background. All test materials were dissolved in 100% DMSO using acoustic technology (Echo550). The prepared solution was preincubated for 15 min followed by the addition of 5 μL/well of ADP standard. ATP was then added to start the reaction. The assay contents were spun and briefly shaken followed by incubation at room temperature for 1 h. At the end of completion of assay, 5 μL of ADP-Glo was added to each well to stop the reaction. The contents were mixed, spun and incubated at room temperature for 40 min followed by the addition of 10 μL/well of ADP detection reagent. The contents were spun, mixed and covered with plastic to measure luminescence. […] The light generated, measured in a luminometer, correlates to the amount of ADP generated in the ACC assay, which is indicative of ACC activity.
The enzyme concentrations for ACC1 and ACC2 were 5 nM and 1 nM, respectively.
Data represent nM or μM ADP produced, % Activity (relative to no inhibitor controls), and curve fits were performed by GraphPad Prism software. The IC50 concentration-response curves were generated for both the ACC1 and ACC2 assays using recombinant human ACC.

Structure (SMILES)	% Enzyme Activity (relative to DMSO controls), AURORA C (AURORA C)	% Enzyme Activity (relative to DMSO controls), DDR2 (DDR2)	% Enzyme Activity (relative to DMSO controls), LIMK1 (LIMK1)	% Enzyme Activity (relative to DMSO controls), MAPKAPK2 (MAPKAPK2)	% Enzyme Activity (relative to DMSO controls), FLT1/VEGFR1 (FLT1/VEGFR1)	IC50 (Human ACC1)	remaining activity at 10 µM (AURORA C) [%]	remaining activity at 10 µM (DDR2) [%]	remaining activity at 10 µM (LIMK1) [%]	remaining activity at 10 µM (MAPKAPK2) [%]	remaining activity at 10 µM (FLT1/VEGFR1) [%]
CC(C)(CCCCc1cccc(CCCCC(C)(C)C(=O)SCCNC(=O)CCNC(=O)[C@H](O)C(C)(C)COP(=O)(O)OP(=O)(O)OC[C@H]2O[C@@H](n3cnc4c(N)ncnc43)[C@H](O)[C@@H]2OP(=O)(O)O)c1)C(=O)O [Compound I-32-CoA, 6-[3-(5-Carboxy-5-methylhexyl)-phenyl]-2,2-dimethylhexanoic acid Coenzyme A Ester]	48.46% and 46.83%	29.98% and 25.40%	47.31% and 45.01%	17.17% and 15.90%	52.06% and 51.61%	5.07e-06 M and 5e-06 M and 6.03e-06 M					
CC(C)(CCCCc1ccc(CCCCC(C)(C)C(=O)SCCNC(=O)CCNC(=O)[C@H](O)C(C)(C)COP(=O)(O)OP(=O)(O)OC[C@H]2O[C@@H](n3cnc4c(N)ncnc43)[C@H](O)[C@@H]2OP(=O)(O)O)cc1)C(=O)O [Compound I-1-CoA, 6-[4-(5-carboxy-5-methylhexyl)-phenyl]-2,2-dimethylhexanoic acid Coenzyme A ester]	78.81% and 72.15%	88.28% and 79.94%	77.88% and 76.61%	85.04% and 84.66%	84.17% and 82.94%	1.63e-05 M and 1.33e-05 M and 1.25e-05 M					
CC(C)(CCCCc1ccc(CCCCC(C)(C)C(=O)O)cc1)C(=O)O [Compound I-1, 6-[4-(5-carboxy-5-methylhexyl)-phenyl]-2,2-dimethylhexanoic acid]							101	79.8	81	93.1	90.3
CC(C)(CCCCc1cccc(CCCCC(C)(C)C(=O)O)c1)C(=O)O [Compound I-32, 6-[3-(5-carboxy-5-methylhexyl)-phenyl]-2,2-dimethylhexanoic acid]						0.000284 M and 0.000272 M and 0.00022 M	104	91.4	83.8	91.7	92.3
